Experiments:
[1] = system: BxPC3 cells; test: Proliferation assay, cell counting under chronic obestatin treatment; type: cell-based, human
Procedure: (§1) PANC1 cell line was obtained from ECACC (87092802; ECACC, Wiltshire, UK). RWP1 and BxPC3 human pancreatic cancer cell lines were kindly provided by FX Real (Epithelial Carcinogenesis Group, Cancer Cell Biology Programme, Spanish National Cancer Research Centre-CNIO, Madrid, ES). In brief, PANC1 cells were cultured in DMEM (supplemented with 4.5 g/L glucose, 10% FBS, and 1% penicillin/streptomycin), RWP1 and BxPC3 cell lines were maintained in RPMI (supplemented with 10% FBS and 1% penicillin/streptomycin) and incubated in an atmosphere containing 5% CO2 at 37° C. These cells were periodically tested and resulted negative for mycoplasma contamination.
(§2) For the analysis of proliferation the cells were seeded on 12-well plates at an amount of 50,000 cells per well and maintained for 24 h in culture media (see above) to allow attachment. The medium was completely removed and replaced with serum-free media for additional 24 h. Then, cells were treated or not with different doses of obestatin: mouse obestatin (corresponding to SEQ ID NO: 4) for KPC FC1242 and human obestatin (corresponding to SEQ ID NO: 1) for PANC1, RWP1 and BxPC3. The following treatments were used: 0% FBS as negative control, 10% FBS as positive control, 100 nM obestatin, 200 nM obestatin, 100 nM obestatin+10% FBS, and 200 nM obestatin+10% FBS. These treatments were administered every 24 h for three days. Twenty-four h after the last treatment, the cells were trypsinized and manually counted with a Neubauer camera.
(§3) The total cells were calculated using the following equations counting 10 squares: […]
(§4) In all cases, each experiment point was replicated eight times.

[2] = system: PANC1 cells; test: as above; type: cell-based, human
Procedure: as §1, §2, §3, §4

[3] = system: RWP1 cells; test: as above; type: cell-based, human
Procedure: as §1, §2, §3, §4

[4] = Pancreatic cancer associated cachexia: skeletal muscle weight, food intake; type: in vivo, C57BL/6J mice; details: tumour-bearing mice
Procedure: FIG. 9. Analysis of obestatin action on skeletal muscle cachexia of C57BL/6J mice (n=4) orthotopically injected with KPC FC1242 cells and treated with vehicle [NaCl, 0.9% (w/v)] or obestatin (500 nmol/Kg/72 h). Tibialis anterior (TA), gastrocnemius (GA), soleus (SOL), extensor digitorum longus (EDL) and diaphragm (DIA) muscles were collected and weighted at day 12 after tumour injection. Results are expressed as the percentage of the weight recovery of the muscle of obestatin-treated mice related to vehicle treated mice (mean±SE).
In vivo experiments were carried out in C57BL/6 mice, obtained from the Central Animal Facility of the University of Santiago de Compostela. Male C57BL/6 mice, weighing 25 g on arrival, were housed four per cage at a constant temperature of 22±2° C. and at a 12 h light/dark cycle. The mice were kept for 5 days for acclimation, with free access to water, and a standard mice chow with a composition of 5.5% fat, 23% protein and 70% carbohydrate (SAFE-Panlab, Spain).
The mice were assigned to the different groups (n=4/group) and treated for five days with: 1) healthy control, 2) tumour+vehicle [NaCl, 0.9% (w/v)], and 3) tumour+obestatin (500 nmol/Kg/72 h). Mice without tumoral cells treatment were utilized as healthy controls.
Mice were weighed at set times over the 15-day period. The sterilized surgical material was used for the tissue extraction. Pancreases and muscles were carefully removed from each animal minimizing contamination with surrounding tissue or mouse hair. Pancreases and muscles were weighed. The skeletal muscles selected were: tibialis anterior, TA; extensor digitorum longus, EDL; gastrocnemius, GAST; soleus, SOL; and diaphragm, DIA. Pancreases were also measured with a scale (cm) and pictures were taken. • Histology—Pancreas samples for histology were fixed in 4% paraformaldehyde in PBS at room temperature overnight. After fixation, samples were dehydrated and embedded in paraffin blocks. For this study, 3-micron sections were cut from each block and placed on pre-cleaned slides (Thermo Fisher Scientific, Waltham, MA, USA). The sectioned tissue slides were covered with a thin layer of paraffin, stoked at 60° C. for 1 hour and stored protected from light at room temperature to preserve the antigenicity of sections. • Immunoblot—For immunoblot analysis, pancreases were immediately frozen in dry ice and stored at −80° C. until use. Tissues were homogenized using a TissueLyser II tissue homogenizer (Qiagen, Hilden, DE), in 200 μL of RIPA lysis buffer at 30 Hz for 3 min. The lysates were clarified by centrifugation (18,000×g, 15 min, 4° C.), and the protein concentration was quantified by the Quantipro™ BCA assay kit (Sigma-Aldrich, St. Louis, MO, US).

[5] = 100 nM obestatin+10% FBS each 24 h for 72 h
[6] = human obestatin (SEQ ID NO: 1) 100 nM each 24 h for 72 h, serum-free

obestatin
effect on FBS-mediated proliferation [1, 5]: significant inhibitory effect
proliferation (number of cells) [1, 6]: does not activate the proliferation
effect on FBS-mediated proliferation [2, 5]: significant inhibitory effect
proliferation (number of cells) [2, 6]: does not activate the proliferation
effect on FBS-mediated proliferation [3, 5]: significant inhibitory effect
proliferation (number of cells) [3, 6]: does not activate the proliferation
effect on skeletal muscle weight loss, diaphragm (DIA) ([4]; obestatin 500 nmol/Kg/72 h): No effect
reduction of skeletal muscle weight loss (weight recovery vs vehicle treated mice), extensor digitorum longus (EDL) ([4]; obestatin 500 nmol/Kg/72 h): 62.2±8.1%
reduction of skeletal muscle weight loss (weight recovery vs vehicle treated mice), gastrocnemius (GAS) ([4]; obestatin 500 nmol/Kg/72 h): 10.6±3.2%
reduction of skeletal muscle weight loss (weight recovery vs vehicle treated mice), soleus (SOL) ([4]; obestatin 500 nmol/Kg/72 h): 33.0±7.3%
reduction of skeletal muscle weight loss (weight recovery vs vehicle treated mice), tibialis anterior (TA) ([4]; obestatin 500 nmol/Kg/72 h): 30.8±6.1%
food intake ([4]; obestatin treatment): maintaining food intake

From patent US20260273020A1, “OBESTATIN FOR USE AS ANTINEOPLASTIC AGENT IN THE TREATMENT OF PANCREATIC CANCER” (SERVIZO GALEGO DE SAÚDE, priority 2023, published 2026)
